The record followed here is PubChem BioAssay AID179 (DTP/NCI, 2004).

The term pEC50 denotes the negative decadic logarithm of the EC50, by convention in mol/L. The term pIC50 denotes −log10 of the IC50, conventionally taken in molar units. A higher pIC50 goes with a low IC50.

The test has as its system CEM cells HIV-1 protection, formazan growth assay. The test can be described thus: NCI AIDS Antiviral Assay. To be noted: for pIC50: measured here: growth of uninfected CEM cells. In short, it runs like this: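 Soluble formazan readout of cell growth; CEM cells ± HIV-1; 5 drug concs. ≥50% protection → retest; ≥50% again = moderately active; reproducible 100% = confirmed active.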

pEC50, pIC50: −log10 of the molar value. “And” between values parts separate entries of the source, which are not always exact repeats. Equal entries are not always repeated. The source made the active and inactive calls.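 The calls were made as follows: active = compounds giving half or more protection of infected cells from virus-caused growth loss, again on retest; inactive = the rest.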 Where a SMILES comes first, the peptide text is derived from it. Some results are limits rather than exact numbers.

With `N#C/C(=C/c1cccs1)c1cccs1`, the pEC50 is less than 3.70 and the pIC50 is less than 3.70.
For `CSc1nnc2c(=O)n(C)c(=O)n(C)c2n1`, the pEC50 is less than 3.70 and the pIC50 was 4.36.
Take `O=C(Nc1noc(-c2ccccc2)n1)c1ccccc1CNc1noc(-c2ccccc2)n1`: the pEC50 was less than 3.70 and the negative logarithm of the IC50 (pIC50) is less than 3.70.
With `CC(C)CC(N)C(=O)NC(CC(=O)O)C(=O)NC(CCCCN)C(=O)NC(C)C(=O)NC(CO)C(=O)NC(Cc1ccc(O)cc1)C(=O)NC(CO)C(=O)NC(C(=O)NC(CC(N)=O)C(=O)NC(Cc1cnc[nH]1)C(=O)NC(CC(C)C)C(=O)O)C(C)O` (stereo not given) (H-LDKASYSTNHL-OH; configuration not given here), the pEC50 was less than 4.30, the result was inactive and the pIC50 is less than 4.30.
Turning to `COc1cccc(N2C(=O)C3C4C=C5c6ccccc6N(c6ccccc6)C5(C3C2=O)[C@H]2C(=O)N(c3cccc(OC)c3)C(=O)[C@@H]42)c1` (stereo not given in full), the pEC50 is less than 5.36 and the negative-log IC50 (pIC50) is less than 5.36.
With `CC(=O)Nc1cc(N=Nc2ccc(N=Nc3ccc(NC(=O)c4ccc(N)cc4)cc3C)cc2C)c(S(=O)(=O)O)cc1N=Nc1cccc(C(=O)O)c1`, the pEC50 was 4.68 and the pIC50 was 3.77.
Turning to `CCOc1cn(C2OC(CO)C(O)C2O)c(=O)[nH]c1=O` (stereo not given), the pEC50 is less than 3.06 and the pIC50 is 3.31.
`Cc1ccc(/C=C2\CCOC2=O)cc1`: the pEC50 was less than 3.86 and the pIC50 is less than 3.86.
With `COC(=O)c1ccccc1C1CN=NC12Cc1c(C)cc(C)cc1C2=O` (stereo not given), the pEC50 was less than 3.76 and the negative logarithm of the IC50 (pIC50) is 4.55.
The like results for `CCSC1=C(C)N(C=NC(C)(C)C)CC1` were, in that order, less than 2.96 and less than 2.96.
The corresponding values for `COc1cccc(/C=C\c2ccc(O)cc2)c1` are less than 3.70 and 5.37.
Take `COc1ccc2c3c([nH]c2c1)CCN(Cc1ccccc1)C3`: the pEC50 is less than 3.70 and the pIC50 is 4.34.
The corresponding values for `CCN1CN(c2ccccc2)C2(CCN(CC3COc4ccccc4O3)CC2)C1=O` (stereo not given) are less than 3.70 and 3.94.
The corresponding values for `Cc1c(/C=N/N(C)C)oc2c1cc(O)c1ncccc12` are less than 4.43 and 5.60.
With `CCN(CC)CCN(C(=O)c1ccc(F)cc1)c1ccccc1N`, the pEC50 was less than 3.70 and the negative logarithm of the IC50 (pIC50) is less than 3.70.
In the case of `CCOC(=O)C(CC#N)(NC(C)=O)C(=O)OCC`, the pEC50 is less than 3.70 and the negative-log IC50 (pIC50) is less than 3.70.
As for `COc1c2c3c(c(OC)c1OC)-c1ccc(O)cc1C3=NCC2`, the result was inactive.
For `CCCCCCOC(=O)CC1CC(C(C)=O)C1(C)C` (stereo not given), the pEC50 was less than 3.70 and the negative-log IC50 (pIC50) is less than 3.70.
For the compound `CS(=O)(=O)NNS(=O)(=O)c1cccc([N+](=O)[O-])c1`, the pEC50 was less than 3.21 and the negative logarithm of the IC50 (pIC50) was less than 3.21.
As for `O=[N+]([O-])c1ccc2nc(-c3ccccc3[N+](=O)[O-])[nH]c2c1`, the pEC50 was less than 3.90 and the pIC50 is 4.61.
Turning to `CC(=O)O[C@]1(C(C)=O)CC[C@H]2[C@@H]3C=C(Cl)C4=CC(=O)[C@@H]5C[C@@H]5[C@]4(C)[C@H]3CC[C@@]21C`, the pEC50 was less than 3.70 and the pIC50 is less than 3.70.
Take `O=C1C(=O)C(c2ccccc2)Oc2ccccc21` (stereo not given): the pEC50 was less than 3.70 and the negative-log IC50 (pIC50) was 4.60.
The corresponding values for `O=c1[nH]cc(N=Nc2ccc(S(=O)(=O)Nc3ccccn3)cc2)cc1O` are less than 3.70 and 4.06.
Regarding `COC(=O)C1(Cc2cccc(C)c2)Cc2c(C)cccc2C1=O` (stereo not given), the pEC50 is less than 3.70 and the negative-log IC50 (pIC50) was 4.49.
The corresponding values for `c1cncc(CSc2nc3ccccc3nc2-c2cccs2)c1` are less than 5.81 and less than 5.81.
Turning to `O=C(CCl)Nc1ccccc1-c1ccccc1NC(=O)CCl`, the outcome was inactive.
With `O=C1c2cc3c(cc2CC12Cc1ccc4c(c1C2=O)CCC4)CCC3` (stereo not given), the pEC50 is less than 3.70 and the negative-log IC50 (pIC50) is less than 3.70.
For `COC1(CC2(OC)C=CC(=O)O2)C=CC(=O)O1` (stereo not given), the pEC50 is less than 3.98 and the pIC50 was 4.26.
The like results for `CCOC(=O)/C(=C/N1C(=O)/C(=C/c2cccc([N+](=O)[O-])c2)SC1=S)C(=O)c1ccccc1` were, in that order, less than 3.70 and 4.73.
On to `O=C1c2ccccc2C(=O)c2c(O)ccc(O)c21`, for which the pEC50 was less than 4.11 and the pIC50 is less than 4.11.
As to `CCCCCCCCCCC(C)CCCCCCC(=O)O` (stereo not given), the result was inactive.
For the compound `CC(=O)N1CCOC12N=NC(C)(C)O2` (stereo not given), the pEC50 is less than 3.70 and the pIC50 was less than 3.70.
On to `CC(C)=C1C=C2CC[C@@H]3[C@](C)(CCC[C@@]3(C)C(=O)O)[C@H]2CC1`, for which the pEC50 is less than 3.70 and the negative-log IC50 (pIC50) is 3.98.
For `CCOC(=O)Cn1c(=O)c2nc(SC)sc2n(CC)c1=S`, the outcome was inactive.
With `CC1(C)OCC2OC3([C@H]4OC(C)(C)O[C@@H]4CO)OC(C)(C)OC3C2O1` (stereo not given in full), the pEC50 was less than 3.70 and the pIC50 was less than 3.70.
In the case of `Cc1nc2c(N)c3nc(C)n(N)c(=O)c3cc2c(=O)n1N`, the pEC50 was less than 5.67 and the pIC50 is less than 5.67.
`O=P(O)(O)c1ccccc1Oc1ccccc1`: the pEC50 is less than 3.70 and the pIC50 is less than 3.70.
On to `CCOP(=O)(OCC)C(NC(=O)OCC(Cl)(Cl)Cl)n1nnc(C(=O)OC)c1C(=O)OC` (stereo not given), for which the pEC50 was less than 3.70 and the pIC50 was less than 3.70.
On to `O=C(Cc1ccccc1)Nn1c(-c2ccccc2)nc2ccccc2c1=O`, for which the pEC50 is 3.91 and the pIC50 is less than 3.70.
For `OCc1cccnc1`, the pEC50 is less than 3.70 and the negative-log IC50 (pIC50) was less than 3.70.
With `N#Cc1c(/N=C/c2cc(Cl)cc(Cl)c2O)sc2c1CCC2`, the pEC50 was less than 3.70 and the pIC50 is less than 3.70.
As to `CC1=C2[C@@H](c3ccccc3)C3C=CC2(C=C3C(F)(F)F)N(C(=O)NC2CCCCC2)C1=O` (stereo not given in full), the pEC50 was less than 4.79 and the negative logarithm of the IC50 (pIC50) was less than 4.79.
As to `O=[N+]([O-])c1cccnc1-n1cnc2ccccc21`, the pEC50 is less than 3.70 and the negative logarithm of the IC50 (pIC50) is less than 4.00.
As to `Cc1cc(C)c(C#N)c(SCC(=O)c2sc3c(C#N)c(C)cc(C)[n+]3c2[O-])n1`, the pEC50 is less than 5.18 and the negative-log IC50 (pIC50) is less than 5.18.
As for `CC(=O)c1sc(-c2nc(C)c(C(=O)/C=C\c3ccc(/C=C\C(=O)c4sc(-c5nc(C)c(C(C)=O)s5)nc4C)cc3)s2)nc1C`, the pEC50 was less than 4.55 and the negative logarithm of the IC50 (pIC50) was less than 4.55.
In the case of `O=C(/C=C/c1ccc(O)cc1)OC[C@@H](O)COC1OC(CO)C(O)C(O)C1O` (stereo not given in full), the outcome was inactive.
As for `Cc1cn(C2CC(O[Si](C)(C)C(C)(C)C)C(CNC(=O)N(O)C3CC(n4cc(C)c(=O)[nH]c4=O)OC3CO[Si](C)(C)C(C)(C)C)O2)c(=O)[nH]c1=O` (stereo not given), the pEC50 was less than 3.70 and the negative logarithm of the IC50 (pIC50) is 5.68.
`COC(=O)[C@@H]1C[C@H]([Se]c2ccccc2)CN1S(=O)(=O)c1ccc(C)cc1`: the result was inactive.
Consider `O=c1sc2c(s1)SSSSS2`, for which the pEC50 is less than 4.30 and the negative-log IC50 (pIC50) is 4.80.
The like results for `COC(=O)C(=O)C(C(=O)C(=O)Nc1ccccc1C(N)=O)c1nc2ccc(Cl)cc2[nH]c1=O` (stereo not given) were, in that order, less than 4.12 and less than 4.12.
With `O=C1C(=Cc2c[nH]c3ccccc23)C(=O)c2ccccc21`, the pEC50 was less than 3.70 and the negative-log IC50 (pIC50) is 3.72.
The corresponding values for `O=C1C=Cc2c(Cl)sc(Cl)c21` are less than 3.70 and 6.10.
The like results for `C/C(=N\N)C(CN1CCOCC1)C(c1ccccc1)c1c(O)c2ccccc2oc1=O` (stereo not given) were, in that order, less than 4.05 and 4.07.
On to `COc1ccc(NC(=O)CC(=O)N2N=C(N3CCCCC3)CC2c2ccccc2)cc1` (stereo not given), for which the pEC50 is less than 3.70 and the negative logarithm of the IC50 (pIC50) is less than 3.70.
Consider `O=C1c2ccccc2N2OC3(N4CCCC4)CCCC3C12c1ccccc1` (stereo not given), for which the pEC50 was less than 4.42 and the negative logarithm of the IC50 (pIC50) was less than 4.42.
On to `COC(=O)[C@@]12OC[C@]34[C@H]([C@@H](O)[C@@H]1O)[C@@]1(C)CC(=O)C(O)=C(C)[C@@H]1C[C@H]3OC(=O)[C@H](OC(=O)C(N)Cc1ccccc1)[C@@H]24` (stereo not given in full), for which the result was inactive.
In turn, `O=c1[nH]c(=O)n(C2CC(F)C(CO)O2)cc1C(OCC(F)(F)F)OCC(F)(F)F` (stereo not given) gave a pEC50 of 4.43 and a negative logarithm of the IC50 (pIC50) of 3.71.
The corresponding values for `COC1=C(Br)[C@H](O)[C@@]2(C=C1Br)CC(C(=O)NCCCCCN=C(N)N)=NO2` are less than 5.00 and less than 5.00.
Turning to `O=NN(CC1(O)OCC(O)C(O)C1O)C(Cc1c[nH]c2ccccc12)C(=O)O` (stereo not given), the outcome was inactive.
For `COc1cccc(N2N=C3c4ccccc4-n4c(nc5ccccc54)C3C2N)c1` (stereo not given), the pEC50 is less than 3.70 and the pIC50 was less than 3.70.
In the case of `CC(=O)OCC1OC(SC2=N/C(=C\c3ccc(Br)s3)C(=O)N2c2ccccc2)C(OC(C)=O)C(OC(C)=O)C1OC(C)=O` (stereo not given), the pEC50 is less than 3.70; the pIC50 was 3.91 and 4.47.
With `COC(=O)C(Cc1nc2ccccc2[nH]c1=O)C(=O)C(=O)Nc1ccc([N+](=O)[O-])cc1[N+](=O)[O-]` (stereo not given), the pEC50 is less than 4.26 and the pIC50 is 4.59.
The like results for `CC1(C)CNC[C@@](C)(O)C(=O)NC(C)(C)CNC[C@](C)(O)C(=O)N1` were, in that order, 3.73 and less than 3.70.
As for `NC(N)=NS(=O)(=O)c1ccc(N=c2c3ccccc3n(-c3ccccc3)c3ccccc23)cc1`, the result was inactive.
As to `Clc1ccc2c(c1)[nH]c1c2nc2ccccn21`, the pEC50 is less than 4.52; the pIC50 is 4.53 and < 4.59.
As to `Nc1ncnc2c1ncn2C1OC(CSC(F)F)C(O)C1O` (stereo not given), the pEC50 is less than 3.12 and the pIC50 was 3.66.
The like results for `COc1ccc(C2S/C(=C\c3ccccc3O)C(=O)N2NC(=O)Cc2ccccc2)cc1` (stereo not given) were, in that order, less than 4.24 and less than 4.24.
The like results for `CCCCCCCCCCCCNC1=C(Cl)C(=O)C(=O)c2cccnc21` were, in that order, 4.27 and 3.76.
The like results for `CNC(=O)OCc1c(COC(=O)NC)c2n(c1C)CS(=O)(=O)C2` were, in that order, less than 3.70 and less than 3.70.
